US8945632B2, “Methods and compositions for inhibiting the nuclear factor κB pathway” (Ben Gurion University of the Negev R&D Authority, priority 2010, dated 2015)

Assays:
L428 cells = experiment: XTT cell survival, NUP combined with chemotherapeutic drugs; assay type: cell-based, human; conditions: Bortezomib 0.9 ng/ml, same conditions, data not shown
[1] = tested on: B16 melanoma cells in C57BL/6 mice; experiment: Experimental lung metastasis of B16 melanoma cells; assay type: in vivo; conditions: NUP 20 mg/kg or cisplatin 4 mg/kg, day 0 to day 14, lungs excised day 18
Description: C57BL/6 mice were treated with an intravenous injection of B16 melanoma cells (3*10^5 cells/[…]). […] Control animals received only vehicle. Lungs were excised on day 18. Metastatic nodules are black (FIG. 11).

| SMILES | Combined effect on cell survival with NUP (L428 cells) | Number of lung metastatic nodules, single agent [1] |
| --- | --- | --- |
| CC(C)C[C@H](NC(=O)[C@H](Cc1ccccc1)NC(=O)c1cnccn1)B(O)O [Bortezomib] | additive to NUP and not synergistic |  |
| N.N.[Cl][Pt][Cl] [cisplatin] |  | reduced the number of lung metastatic nodules |
